Test results published in article PMC10202811 (Nature Medicine, 2023).
“And” between values parts separate entries of the source, which are not always exact repeats. Identical values can stand only once. Like-named read-outs stand apart in the source and are kept apart here.

Assay: Plasma pharmacokinetics of lorlatinib at steady state (LC-MS/MS, non-compartmental analysis)
Assay type: in vivo, human
Parameters: Vz_F / Cmax_D / AUMClast / AUMC_TAU: unit not given here
Conditions: for Tlag: unit assumed
Text: Lorlatinib was isolated from human plasma by a liquid-iquid extraction procedure. […] A linear-log trapezoidal method was used [NT] A best-fit method was used to estimate terminal elimination and to extrapolate any plasma concentration versus time profiles to compute [NT].

[1] = Cycle 1 Day 1, Cohort B2, 115 mg/m2 per dose
[2] = Cycle 1 Day 1, Cohort A1, 45 mg/m2 per dose, individual patients
[3] = Cycle 1 Day 1, Cohort A1, 60 mg/m2 per dose, individual patients
[4] = Cycle 1 Day 1, Cohort A1, 75 mg/m2 per dose, individual patients
[5] = Cycle 1 Day 1, Cohort A1, 95 mg/m2 per dose, individual patients
[6] = Cycle 1 Day 1, Cohort A1, 115 mg/m2 per dose, individual patients
[7] = Cycle 1 Day 1, Cohort A2, 100 mg per dose, individual patients
[8] = Cycle 1 Day 1, Cohort A2, 150 mg per dose, individual patients
[9] = Cycle 1 Day 1, Cohort A2, 150 mg per dose, individual patients, in ng/mL
[10] = Cycle 1 Day 1, Cohort A2, 150 mg per dose, individual patients, in ng·h/mL (unit assumed)
[11] = Cycle 1 Day 1, Cohort A2, 150 mg per dose, individual patients, listed as lorlatinib, in h (unit assumed)
[12] = Cycle 1 Day 1, patient N0773, Cohort B2, 115 mg/m2 per dose, Dose 75
[13] = Cycle 1 Day 15, Cohort A1, 95 mg/m2 per dose
[14] = Cycle 1 Day 15, Cohort A1, 95 mg/m2 per dose, in h (unit assumed)
[15] = Cycle 1 Day 15, Cohort A1, 115 mg/m2 per dose
[16] = Cycle 1 Day 15, Cohort A2, 150 mg per dose
[17] = Cycle 1 Day 15, Cohort A2, 150 mg per dose, in h (unit assumed)
[18] = Cycle 1 Day 15, Cohort A2, 150 mg per dose, in ng·h/mL (unit assumed)
[19] = Cycle 1 Day 15, Cohort B2, 95 mg/m2 per dose
[20] = Cycle 1 Day 15, Cohort B2, 95 mg/m2 per dose, in h (unit assumed)
[21] = Cycle 1 Day 15, Cohort B2, 95 mg/m2 per dose, in ng/mL
[22] = Cycle 1 Day 15, Cohort B2, 95 mg/m2 per dose, in ng·h/mL (unit assumed)
[23] = Cycle 1 Day 15, Cohort B2, 115 mg/m2 per dose
[24] = Cycle 1 Day 15, Cohort A1, 45 mg/m2 per dose, individual patients
[25] = Cycle 1 Day 15, Cohort A1, 45 mg/m2 per dose, individual patients, in h (unit assumed)
[26] = Cycle 1 Day 15, Cohort A1, 60 mg/m2 per dose, individual patients
[27] = Cycle 1 Day 15, Cohort A1, 60 mg/m2 per dose, individual patients, in h (unit assumed)
[28] = Cycle 1 Day 15, Cohort A1, 75 mg/m2 per dose, individual patients
[29] = Cycle 1 Day 15, Cohort A1, 75 mg/m2 per dose, individual patients, in h (unit assumed)
[30] = Cycle 1 Day 15, Cohort A1, 75 mg/m2 per dose, individual patients, in ng·h/mL (unit assumed)
[31] = Cycle 1 Day 15, Cohort A1, 95 mg/m2 per dose, individual patients
[32] = Cycle 1 Day 15, Cohort A1, 95 mg/m2 per dose, individual patients, in h (unit assumed)
[33] = Cycle 1 Day 15, Cohort A1, 115 mg/m2 per dose, individual patients

C[C@H]1Oc2cc(cnc2N)-c2c(nn(C)c2C#N)CN(C)C(=O)c2ccc(F)cc21 [Lorlatinib, (10R)-7-amino-12-fluoro-2,10,16-trimethyl-15-oxo-10,15,16,17-tetrahydro-2H-8,4-(metheno)pyrazolo[4,3-h][2,5,11]-benzoxadiazacyclotetradecine-3-carbonitrile]
Tlag (Cycle 1 Day 1, Cohort A2, 150 mg per dose): 0 h | Tlag (Cycle 1 Day 1, Cohort B2, 95 mg/m2 per dose): 0 h | Tlast [1]: 24 h | Tmax (Cycle 1 Day 1, Cohort B2, 115 mg/m2 per dose, in h (unit assumed)): 1 | Tmax (Cycle 1 Day 1, Cohort B2, 115 mg/m2 per dose, listed as lorlatinib, in h (unit assumed)): 2 | Tlag [1]: 0 h | Tlast [2]: 24 h | Tmax (Cycle 1 Day 1, Cohort A1, 45 mg/m2 per dose, individual patients, in h (unit assumed)): 2 | Tlag [2]: 0 h | Tlast [3]: 24 h | Tlag [3]: 0 h | Tlast [4]: 24 h | Tmax (Cycle 1 Day 1, Cohort A1, 75 mg/m2 per dose, individual patients, in h (unit assumed)): 2 | Cmax (Cycle 1 Day 1, Cohort A1, 75 mg/m2 per dose, individual patients, in ng/mL): 779 | Tlag [4]: 0 h | Tlast [5]: 24 h | Tlag [5]: 0 h | AUMClast [6]: 125336.7763 | Cmax_D [6]: 11.08 | Tlast [6]: 24 h | Clast (Cycle 1 Day 1, Cohort A1, 115 mg/m2 per dose, individual patients, in ng/mL): 172 | Tlag [6]: 0 h | Tlast [7]: 24 h | Tmax (Cycle 1 Day 1, Cohort A2, 100 mg per dose, individual patients, in h (unit assumed)): 2 | Tlag [7]: 0 h | AUMClast [8]: 49463.3786 and 88733.21472 and 92632.60987 | Cmax_D [8]: 3.76 and 5.527 and 7.067 | Tlast [8]: 24 h | Tmax (Cycle 1 Day 1, Cohort A2, 150 mg per dose, individual patients, in h (unit assumed)): 2 | Clast [9]: 70.8 and 151 and 127 | Cmax [9]: 829 and 1060 | AUCall [10]: 9320 and 11097.69267 | AUClast [10]: 9320 and 11097.69267 | MRTlast [11]: 9.52 and 8.347 | Tmax [11]: 2 | Tlag [8]: 0 h | AUMClast [12]: 89144.88493 | Cmax_D [12]: 22.13 | Tlast [12]: 24 h | Tlag [12]: 0 h | AUC_TAU_%Extrap [13]: 0% | Tlast [13]: 24 h | Tmax [14]: 1 | Tmin [14]: 0 | Cavg (Cycle 1 Day 15, Cohort A1, 95 mg/m2 per dose, in ng/mL): 288.1 | Tlag [13]: 0 h | AUC_TAU_%Extrap [15]: 0% | Tlast [15]: 24 h | Tmin (Cycle 1 Day 15, Cohort A1, 115 mg/m2 per dose, in h (unit assumed)): 0 | Tlag [15]: 0 h | AUC_TAU_%Extrap [16]: 0% | AUMC_TAU [16]: 48864.79941 and 48509.22474 and 72138.31531 and 51031.1075 and 68396.67554 and 68306.96584 and 82226.35285 | Accumulation_Index [16]: 1.404 and 1.221 and 1.584 and 1.215 and 1.756 and 1.451 and 1.861 | CLss_F [16]: 30.01 and 26.36 and 19.5 and 22.81 and 21.08 and 21.41 and 18.08 | Tlast [16]: 24 h | Vz_F [16]: 578.5 and 370.3 and 469.1 and 316.3 and 600.6 and 439.8 and 562.8 | Tmax [17]: 1 | Tmin [17]: 0 | Cavg (Cycle 1 Day 15, Cohort A2, 150 mg per dose, in ng/mL): 208.3 and 237.1 and 320.6 and 274 and 296.5 and 291.9 and 345.7 | AUC_TAU [18]: 5690 and 7694 and 6577 and 7116 and 7005 | AUCall [18]: 5690 and 7694 and 6577 and 7116 and 7005 | AUClast [18]: 5690 and 7694 and 6577 and 7116 and 7005 and 8297 | Tmax (Cycle 1 Day 15, Cohort A2, 150 mg per dose, read-out: Tmax): 1 h (4×) and 2 h | Tlag [16]: 0 h | AUC_%Extrap_obs [19]: 3.629% | AUC_%Extrap_pred [19]: 3.558% | AUC_TAU_%Extrap [19]: 0% | Accumulation_Index [19]: 1.029 | Tlast [19]: 24 h | Vz_F [19]: 73.35 | HL_Lambda_z [20]: 4.68 | Tmax [20]: 2 | Tmin [20]: 0 | Lambda_z (Cycle 1 Day 15, Cohort B2, 95 mg/m2 per dose, in h-1 (unit assumed)): 0.1481 | Clast_pred [21]: 30.18 | Cmax [21]: 721 | AUC_TAU [22]: 5523 | AUCall [22]: 5523 | AUClast [22]: 5523 | Tlag [19]: 0 h | AUC_TAU_%Extrap [23]: 0% | Tlast [23]: 24 h | Tmax (Cycle 1 Day 15, Cohort B2, 115 mg/m2 per dose, in h (unit assumed)): 1 | Tmax (Cycle 1 Day 15, Cohort B2, 115 mg/m2 per dose, listed as lorlatinib, in h (unit assumed)): 2 | Tlag [23]: 0 h | AUC_TAU_%Extrap [24]: 0% | Tlast [24]: 24 h | Vz_F [24]: 335.3 | Tmax [25]: 2 | Tmin [25]: 0 | Tlag [24]: 0 h | AUC_TAU_%Extrap [26]: 0% | Tlast [26]: 24 h | Tmax [27]: 2 | Tmin [27]: 0 | Cmax (Cycle 1 Day 15, Cohort A1, 60 mg/m2 per dose, individual patients, in ng/mL): 343 | Tlag [26]: 0 h | AUC_TAU_%Extrap [28]: 0% | Tlast [28]: 24 h | MRTINF_obs [29]: 9.338 | MRTINF_pred [29]: 9.311 | Tmin [29]: 0 | AUCINF_obs [30]: 3021 | AUCINF_pred [30]: 3018 | Tlag [28]: 0 h | AUC_TAU_%Extrap [31]: 0% | Tlast [31]: 24 h | MRTINF_obs [32]: 11.95 | MRTINF_pred [32]: 11.86 | Tmax [32]: 2 | Tmin [32]: 0 | Tlag [31]: 0 h | AUC_%Extrap_obs [33]: 23.66% | AUC_%Extrap_pred [33]: 23.4% | AUC_TAU_%Extrap [33]: 0% | AUMC_TAU [33]: 68314.30452 | Accumulation_Index [33]: 1.333 | CLss_F [33]: 15.84 | Cmax_D [33]: 10.38 | Fluctuation% [33]: 351.8% | Fluctuation%_Tau [33]: 351.8%
